The target in one assay is RNA-directed RNA polymerase (Hepacivirus hominis, UniProt O39930). Description: Inhibitory activity against Hepatitis C virus RNA dependent RNA polymerase nonstructural protein 5B.
Chain of RNA-directed RNA polymerase (O39930 whole entry): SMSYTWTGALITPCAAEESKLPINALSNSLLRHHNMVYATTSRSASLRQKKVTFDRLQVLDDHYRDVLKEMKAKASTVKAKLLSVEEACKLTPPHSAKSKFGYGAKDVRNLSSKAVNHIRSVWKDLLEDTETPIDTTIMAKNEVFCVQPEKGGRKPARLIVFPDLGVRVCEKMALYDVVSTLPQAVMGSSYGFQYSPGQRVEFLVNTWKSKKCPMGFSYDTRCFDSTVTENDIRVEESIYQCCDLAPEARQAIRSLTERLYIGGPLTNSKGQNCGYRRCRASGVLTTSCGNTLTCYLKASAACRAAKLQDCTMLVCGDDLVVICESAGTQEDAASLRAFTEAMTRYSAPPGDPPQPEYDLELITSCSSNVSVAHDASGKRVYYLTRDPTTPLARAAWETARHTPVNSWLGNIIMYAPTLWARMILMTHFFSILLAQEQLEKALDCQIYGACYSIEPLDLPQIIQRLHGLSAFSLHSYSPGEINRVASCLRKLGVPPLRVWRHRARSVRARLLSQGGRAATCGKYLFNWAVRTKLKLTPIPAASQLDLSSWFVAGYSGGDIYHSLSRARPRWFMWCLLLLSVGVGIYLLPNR
As for `O=C(O)C(=O)CCc1ccccc1`, the IC50 is above 50 µM.

`CCc1ccc(C(=O)CC(=O)C(=O)O)cc1` registered an IC50 of 47 µM.

Turning to `N#Cc1c(Cl)cc(Cl)cc1COc1cccc(/C(O)=C/C(=O)C(=O)O)c1`, the IC50 stood at 0.045 µM.

`CCCOc1ccccc1C(=O)CC(=O)C(=O)O` came in with an IC50 of 3.9 µM.

Regarding `Cc1ccc(C(=O)CC(=O)C(=O)O)cc1`, the IC50 was 5 µM. This IC50 and that of the compound before are within 1.5-fold of each other.

Consider `O=C(O)C(=O)CC(=O)c1cccc(COc2ccccc2)c1`, for which half-maximal inhibition (IC50) required 30 µM.

As for `N#CCCCOc1ccccc1C(=O)CC(=O)C(=O)O`, half-maximal inhibition (IC50) required 0.35 µM. Compared with the last compound, the IC50 is about 86-fold lower.

`N#CCCCOc1ccc(OCc2ccccc2C#N)cc1/C(O)=C/C(=O)C(=O)O` gave an IC50 above 50 µM.

On to `O=C(O)C(=O)CC(=O)c1cccc(NS(=O)(=O)c2ccccc2)c1`, for which the IC50 stood at 16 µM.

In the case of `N#CCCCOc1cccc(/C(O)=C/C(=O)C(=O)O)c1`, the IC50 is 2.5 µM.

With `O=C(O)C(=O)CC(=O)c1ccncc1`, the IC50 is above 50 µM.

Consider `CCCCOc1ccccc1C(=O)CC(=O)C(=O)O`, for which the IC50 was determined as 10 µM.

The compound `COC(=O)C(=O)CC(=O)c1ccccc1` showed an IC50 above 50 µM.

For the compound `O=C(O)C(=O)CC(=O)c1ccco1`, the IC50 was above 50 µM.

`O=C(O)C(=O)CC(=O)C(c1ccccc1)c1ccccc1` had an IC50 above 50 µM.

As for `CC(C)(C)c1ccc(C(=O)CC(=O)C(=O)O)cc1`, the IC50 was above 50 µM.

`O=C(CC(O)C(=O)O)c1ccccc1` (stereo not given) had an IC50 above 50 µM.

`N#Cc1ccccc1COc1cccc(/C(O)=C/C(=O)C(=O)O)c1`: the IC50 was found to be 0.23 µM.

For `N#Cc1cccc(COc2cccc(/C(O)=C/C(=O)C(=O)O)c2)c1`, the midpoint of inhibition, the IC50, lay at 6.7 µM.

`O=C(O)C(=O)CC(=O)c1cccnc1` gave an IC50 above 50 µM.

`CC(C)(C)C(=O)CC(=O)C(=O)O` gave an IC50 above 50 µM.

Take `O=C(O)C(=O)CC(=O)c1ccsc1`: the IC50 stood at 4.5 µM.

Compound `O=C(O)C(=O)CC(=O)c1cccc(OCc2ccccc2)c1` displayed an IC50 of 8 µM.

The compound `O=C(O)C(=O)CC(=O)c1ccccc1` showed an IC50 of 5.7 µM.

`N#Cc1ccc(Br)cc1COc1cccc(/C(O)=C/C(=O)C(=O)O)c1` returned an IC50 of 0.1 µM.

Take `N#Cc1c(Cl)cccc1COc1cccc(/C(O)=C/C(=O)C(=O)O)c1`: half-maximal inhibition (IC50) was put at 0.11 µM. This IC50 and that of the compound before are within 1.5-fold of each other.

Turning to `O=C(O)C(=O)CC(=O)c1cccc(NC(=O)c2ccccc2)c1`, the IC50 is 11 µM.

In turn, `O=C(O)C(=O)CC(=O)c1cccc(NCc2ccccc2)c1` showed an IC50 of 16.7 µM.

In the case of `O=C(O)C(=O)CC(=O)c1ccccc1OCc1ccccc1`, the IC50 amounted to 44 µM.

For `CCCCCOc1ccccc1C(=O)CC(=O)C(=O)O`, the IC50 amounted to 25 µM.

As for `CC(=O)CC(=O)C(=O)O`, the IC50 is above 50 µM.

Another assay deals with Nucleic Acid. Description: Inhibitory activity against alpha human DNA polymerase was determined. Type of assay: nucleic-acid assay.
`N#Cc1c(Cl)cc(Cl)cc1COc1cccc(/C(O)=C/C(=O)C(=O)O)c1` came in with an IC50 above 5 µM.

The target in the next assay is Nucleic Acid. Description: Inhibitory activity against beta human DNA polymerase was determined. The class given is nucleic-acid assay.
Turning to `N#Cc1c(Cl)cc(Cl)cc1COc1cccc(/C(O)=C/C(=O)C(=O)O)c1`, the IC50 was above 5 µM.

In the next assay the target is Nucleic Acid. In words: Inhibitory activity against gamma human DNA polymerase was determined. Type of assay: nucleic-acid assay.
For the compound `N#Cc1c(Cl)cc(Cl)cc1COc1cccc(/C(O)=C/C(=O)C(=O)O)c1`, the IC50 was above 5 µM.

For a further assay, the target named is Human immunodeficiency virus type 1 reverse transcriptase (Human immunodeficiency virus 1, UniProt Q72547). In words: Inhibitory activity against HIV-1 reverse transcriptase was determined.
Take `N#Cc1c(Cl)cc(Cl)cc1COc1cccc(/C(O)=C/C(=O)C(=O)O)c1`: the IC50 was above 50 µM.

Broadly, the IC50 is the concentration needed to halve the response being measured. A lower IC50 goes with inhibition by little substance.
